This note sets out measurements from patent US20240360148A1 (SUVALENT THERAPEUTICS, INC., priority 2021, published 2024).

SMILES strings stand for the structures.

Chain of SAE1 (Q9UBE0 whole entry): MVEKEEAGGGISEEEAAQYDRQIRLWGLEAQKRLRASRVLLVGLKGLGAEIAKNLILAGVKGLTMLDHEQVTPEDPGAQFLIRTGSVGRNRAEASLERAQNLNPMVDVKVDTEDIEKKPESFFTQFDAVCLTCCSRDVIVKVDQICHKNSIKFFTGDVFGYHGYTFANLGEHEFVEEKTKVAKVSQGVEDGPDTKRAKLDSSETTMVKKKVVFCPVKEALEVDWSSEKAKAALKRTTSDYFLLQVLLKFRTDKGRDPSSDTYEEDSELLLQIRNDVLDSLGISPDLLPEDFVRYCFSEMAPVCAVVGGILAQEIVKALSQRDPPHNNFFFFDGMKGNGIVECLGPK
Chain of SAE1 (Q9UBT2 whole entry): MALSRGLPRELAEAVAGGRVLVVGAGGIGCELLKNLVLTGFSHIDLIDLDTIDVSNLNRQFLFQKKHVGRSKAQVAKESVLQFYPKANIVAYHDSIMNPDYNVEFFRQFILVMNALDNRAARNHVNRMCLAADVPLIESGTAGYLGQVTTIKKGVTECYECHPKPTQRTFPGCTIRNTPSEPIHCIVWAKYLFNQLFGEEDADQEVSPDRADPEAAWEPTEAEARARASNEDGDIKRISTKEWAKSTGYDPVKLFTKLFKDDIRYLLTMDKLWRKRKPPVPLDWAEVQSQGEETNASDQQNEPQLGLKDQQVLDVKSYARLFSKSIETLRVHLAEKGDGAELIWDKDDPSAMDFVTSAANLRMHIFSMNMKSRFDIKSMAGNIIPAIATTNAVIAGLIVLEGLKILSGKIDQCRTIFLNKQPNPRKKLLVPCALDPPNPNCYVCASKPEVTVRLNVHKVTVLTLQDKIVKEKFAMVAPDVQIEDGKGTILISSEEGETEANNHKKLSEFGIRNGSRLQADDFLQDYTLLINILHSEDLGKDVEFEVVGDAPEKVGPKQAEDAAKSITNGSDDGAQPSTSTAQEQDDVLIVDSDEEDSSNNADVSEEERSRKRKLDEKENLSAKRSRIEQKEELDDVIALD

The experiment concerns the target SAE1 (Homo sapiens (Human), UniProt Q9UBE0+Q9UBT2). Kind of experiment: SAE High Throughput Biochemical Assay (HTRF), 15 min preincubation. The note with it: read-out: 15 min preincubation HTRF IC50 (μM) Ave, SAE1 12.5 nM, ATP 100 μM. As for the experimental part: Assay buffer was prepared [50 mM HEPES, pH 7.5, 0.1% BSA and 10 mM MgCl2] as was the Stop Buffer [100 mM HEPES, pH 7.5, 0.05% Tween20, and 410 mM KF]. The 2×Reaction Buffer [80 nM SUMO-GST, 80 nM UBC9-His, 200 μM ATP and diluted in Assay Buffer] and Antibody Reaction Mix [13.34 nM anti-GSTXL665, 1.66 nM anti-His EuK and Diluted in Stop Buffer] were also prepared. Compounds were dissolved at 200×in DMSO in a 384-well plate. Serial dilutions were performed in DMSO for each compound, and then each concentration was diluted another 50-fold in Assay Buffer, to 4× the final concentration. 2.5 μL of each concentration was transferred into its own well in a 384-well plate. SAE1 was then diluted to 4× in Assay Buffer, and 2.5 μL of 4×SAE1 was mixed into each compound-containing well. After incubating for 15 minutes at RT, 5 μL of 2×Reaction Buffer was mixed into every well. Then after another 45 minutes at RT, 10 μL of Antibody Reaction Mix was added and mixed into every well. This plate was then read on an HTRF-compatible plate reader after 2 hours at RT, and again after sitting at RT overnight. [Final Component Concentrations: SAE1: 12.5 nM; SUMO-GST: 40 nM; UBC9-His: 40 nM; Anti-GST-XL665: 6.67 nM; Anti-His-EuK: 0.83 nM; and ATP: 100 μM] Alternatively, the compounds are tested at a single concentration of 25 micromolar and the percent of control is measured.
As usually defined, the IC50 is the midpoint of a concentration-inhibition curve. Consider `CCn1cc(-c2ccccc2[C@@H]2CN(C(=O)/C=C/[C@H](N)CO)Cc3sc(C#N)cc32)c(C(F)(F)F)n1` [Example 73, (S)-6-((S,E)-4-Amino-5-hydroxypent-2-enoyl)-4-(2-(1-ethyl-3-(trifluoromethyl)-1H pyrazol-4-yl)phenyl)-4,5,6,7-tetrahydrothieno[2,3-c]pyridine-2-carbonitrile], for which the IC50 stood at 21.9 µM.

For the compound `CCn1cc(-c2ccccc2[C@@H]2CN(C(=O)/C=C/C3COCCN3)Cc3sc(C#N)cc32)c(C(F)(F)F)n1` (stereo partly drawn) [Example 76, (4S)-4-(2-(1-Ethyl-3-(trifluoromethyl)-1 H-pyrazol-4-yl)phenyl)-6-((E)-3-(morpholin-3-yl)acryloyl)-4,5,6,7-tetrahydrothieno[2,3-c]pyridine-2-carbonitrile], the IC50 worked out at 14.7 µM.

Turning to `CCn1cc(-c2ccccc2[C@@H]2CN(C(=O)/C=C/C(C)NC)Cc3sc(C#N)cc32)c(C(F)(F)F)n1` (stereo partly drawn) [Example 77, (4S)-4-(2-(1-Ethyl-3-(trifluoromethyl)-1 H pyrazol-4-yl)phenyl)-6-((E)-4-(methylamino)pent-2-enoyl)-4,5,6,7-tetrahydrothieno[2,3-c]pyridine-2-carbonitrile], the IC50 amounted to 9.55 µM.

For the compound `CCn1cc(-c2ccccc2[C@@H]2CN(C(=O)/C=C/[C@H]3CCC(C)(C)N3)Cc3sc(C#N)cc32)c(C(F)(F)F)n1` [Example 78, (S)-6-((E)-3-((R)-5,5-Dimethylpyrrolidin-2-yl)acryloyl)-4-(2-(1-ethyl-3-(trifluoromethyl)-1H pyrazol-4-yl)phenyl)-4,5,6,7-tetrahydrothieno[2,3-c]pyridine-2-carbonitrile], the IC50 amounted to 6 µM.

As to `CCn1cc(-c2ccccc2[C@@H]2CN(C(=O)/C=C/[C@@H](COC)NC)Cc3sc(C#N)cc32)c(C(F)(F)F)n1` [Example 85, (S)-4-(2-(1-Ethyl-3-(trifluoromethyl)-1 H-pyrazol-4-yl)phenyl)-6-((S, E)-5-methoxy-4-(methylamino)pent-2-enoyl)-4,5,6,7-tetrahydrothieno[2,3-c]pyridine-2-carbonitrile], the IC50 was more than 25 µM.

For `CCn1cc(-c2ccccc2[C@@H]2CN(C(=O)/C=C/[C@H](COC)NC)Cc3sc(C#N)cc32)c(C(F)(F)F)n1` [Example 86, (S)-4-(2-(1-Ethyl-3-(trifluoromethyl)-1 H-pyrazol-4-yl)phenyl)-6-((R, E)-5-methoxy-4-(methylamino)pent-2-enoyl)-4,5,6,7-tetrahydrothieno[2,3-c]pyridine-2-carbonitrile], the IC50 came to 9.1 µM.

With `CCn1cc(-c2ccccc2[C@@H]2CN(C(=O)/C=C/[C@@H](C)NC)Cc3sc(C#N)cc32)c(C(F)(F)F)n1` [Example 87, (S)-4-(2-(1-Ethyl-3-(trifluoromethyl)-1 H-pyrazol-4-yl)phenyl)-6-((R, E)-4-(methylamino)pent-2-enoyl)-4,5,6,7-tetrahydrothieno[2,3-c]pyridine-2-carbonitrile], the 50% inhibitory concentration (IC50) came out at 18.2 µM.

As to `CCn1cc(-c2c(F)cccc2[C@@H]2CN(C(=O)/C=C/[C@@H](C)NC)Cc3sc(C#N)cc32)c(C(F)(F)F)n1` [Example 88, (S)-4-(2-(1-Ethyl-3-(trifluoromethyl)-1H pyrazol-4-yl)-3-fluorophenyl)-6-((R,E)-4-(methylamino)pent-2-enoyl)-4,5,6,7-tetrahydrothieno[2,3-c]pyridine-2-carbonitrile], the IC50 turned out to be 2.7 µM.

Regarding `CCn1cc(-c2ccccc2[C@@H]2CN(C(=O)/C=C/CNC3(C)COC3)Cc3sc(C#N)cc32)c(C(F)(F)F)n1` [Example 95, (S, E)-4-(2-(1-Ethyl-3-(trifluoromethyl)-1 H-pyrazol-4-yl)phenyl)-6-(4-((3-methyloxetan-3-yl)amino)but-2-enoyl)-4,5,6,7-tetrahydrothieno[2,3-c]pyridine-2-carbonitrile], the IC50 came out at 15.6 µM.

For the compound `CCn1cc(-c2ccccc2[C@@H]2CN(C(=O)/C=C/CNC3(C)CCOC3)Cc3sc(C#N)cc32)c(C(F)(F)F)n1` (stereo partly drawn) [Example 97, (4S)-4-(2-(1-Ethyl-3-(trifluoromethyl)-1 H-pyrazol-4-yl)phenyl)-6-((E)-4-((3-methyltetrahydrofuran-3-yl)amino)but-2-enoyl)-4,5,6,7-tetrahydrothieno[2,3-c]pyridine-2-carbonitrile], the IC50 came to 2.76 µM.

For the compound `CCn1cc(-c2ccccc2[C@@H]2CN(C(=O)/C=C/C3(N)CC3)Cc3sc(C#N)cc32)c(C(F)(F)F)n1` [Example 109, (S, E)-6-(3-(1-Aminocyclopropyl)acryloyl)-4-(2-(1-ethyl-3-(trifluoromethyl)-1 H-pyrazol-4-yl)phenyl)-4,5,6,7-tetrahydrothieno[2,3-c]pyridine-2-carbonitrile], the IC50 was 26.5 µM.

Take `CCn1cc(-c2ccccc2[C@@H]2CN(C(=O)C#CC3(N)CCC3)Cc3sc(C#N)cc32)c(C(F)(F)F)n1` [Example 137, (S)-6-(3-(1-Aminocyclobutyl)propioloyl)-4-(2-(1-ethyl-3-(trifluoromethyl)-1 H pyrazol-4-yl)phenyl)-4,5,6,7-tetrahydrothieno[2,3-c]pyridine-2-carbonitrile]: the IC50 is 0.36 µM.

As to `CCn1cc(-c2ccccc2[C@@H]2CN(C(=O)C#CCN3CCN(C)CC3)Cc3sc(C#N)cc32)c(C(F)(F)F)n1` [Example 143, (S)-4-(2-(1-Ethyl-3-(trifluoromethyl)-1 H pyrazol-4-yl)phenyl)-6-(4-(4-methylpiperazin-1-yl)but-2-ynoyl)-4,5,6,7-tetrahydrothieno[2,3-c]pyridine-2-carbonitrile], the IC50 came out at 2.18 µM.

With `CCn1cc(-c2ccccc2[C@@H]2CN(C(=O)C#CC3CCCNC3)Cc3sc(C#N)cc32)c(C(F)(F)F)n1` (stereo partly drawn) [Example 145, (4S)-4-(2-(1-Ethyl-3-(trifluoromethyl)-1 H-pyrazol-4-yl)phenyl)-6-(3-(piperidin-3-yl)propioloyl)-4,5,6,7-tetrahydrothieno[2,3-c]pyridine-2-carbonitrile], the IC50 is 5.62 µM.

As for `CN(C)C/C=C/C(=O)N1Cc2sc(C#N)cc2C(c2ccccc2-c2c[nH]nc2C(F)(F)F)C1` (stereo not shown) [Example 152, (E)-6-(4-(Dimethylamino)but-2-enoyl)-4-(2-(3-(trifluoromethyl)-1H-pyrazol-4-yl)phenyl)-4,5,6,7-tetrahydrothieno[2,3-c]pyridine-2-carbonitrile], the IC50 worked out at 10.4 µM.

Consider `CN(C)C/C=C/C(=O)N1Cc2sc(C#N)cc2[C@H](c2ccccc2-c2c[nH]nc2C(F)(F)F)C1` [Example 153, (S, E)-6-(4-(Dimethylamino)but-2-enoyl)-4-(2-(3-(trifluoromethyl)-1 H-pyrazol-4-yl)phenyl)-4,5,6,7-tetrahydrothieno[2,3-c]pyridine-2-carbonitrile], for which the IC50 came out at 9.68 µM.

In the case of `CN(C)C/C=C/C(=O)N1Cc2sc(C#N)cc2C(c2ccccc2-c2cn(CCC#N)nc2C(F)(F)F)C1` (stereo not shown) [Example 154, (E)-4-(2-(1-(2-Cyanoethyl)-3-(trifluoromethyl)-1H pyrazol-4-yl)phenyl)-6-(4-(dimechylamino)but-2-enoyl)-4,5,6,7-tetrahydrothieno[2,3-c]pyridine-2-carbonitrile], the IC50 was determined as 7.34 µM.

In the case of `CN(C)C/C=C/C(=O)N1Cc2sc(C#N)cc2[C@H](c2ccccc2-c2cn(-c3ccncc3F)nc2C(F)(F)F)C1` [Example 157, (S,E)-6-(4-(Dimethylamino)but-2-enoyl)-4-(2-(1-(3-fluoropyridin-4-yl)-3-(trifluoromethyl)-1H pyrazol-4-yl)phenyl)-4,5,6,7-tetrahydrothieno[2,3-c]pyridine-2-carbonitrile], the IC50 is 18.6 µM.

For the compound `CN(C)C/C=C/C(=O)N1Cc2sc(C#N)cc2[C@H](c2ccccc2-c2cn(-c3ncccc3F)nc2C(F)(F)F)C1` [Example 158, (S,E)-6-(4-(Dimethylamino)but-2-enoyl)-4-(2-(1-(3-fluoropyridin-2-yl)-3-(trifluoromethyl)-1H pyrazol-4-yl)phenyl)-4,5,6,7-tetrahydrothieno[2,3-c]pyridine-2-carbonitrile], the IC50 is 6.37 µM.

`CN(C)C/C=C/C(=O)N1Cc2sc(C#N)cc2[C@H](c2ccccc2-c2cn(-c3ccnc(N)c3)nc2C(F)(F)F)C1` [Example 160, (S, E)-4-(2-(1-(2-Aminopyridin-4-yl)-3-(trifluoromethyl)-1 H-pyrazol-4-yl)phenyl)-6-(4-(dimethylamino)but-2-enoyl)-4,5,6,7-tetrahydrothieno[2,3-c]pyridine-2-carbonitrile]: the half-maximal inhibitory concentration (IC50) amounted to 24.4 µM.

As for `CNC(=O)C(C)n1cc(-c2ccccc2[C@@H]2CN(C(=O)/C=C/CN(C)C)Cc3sc(C#N)cc32)c(C(F)(F)F)n1` (stereo partly drawn) [Example 161, 2-(4-(2-((S)-2-Cyano-6-((E)-4-(dimethylamino)but-2-enoyl)-4,5,6,7-tetrahydrothieno[2,3-c]pyridin-4-yl)phenyl)-3-(trifluoromethyl)-1 H-pyrazol-1-yl)-N-methylpropanamide], the IC50 came out at 15.8 µM.

As to `CN(C)C/C=C/C(=O)N1Cc2sc(C#N)cc2[C@H](c2ccccc2-c2cn(CC(N)=O)nc2C(F)(F)F)C1` [Example 162, (S, E)-2-(4-(2-(2-Cyano-6-(4-(dimethylamino)but-2-enoyl)-4,5,6,7-tetrahydrothieno[2,3-c]pyridin-4-yl)phenyl)-3-(trifluoromethyl)-1 H-pyrazol-1-yl)acetamide], the IC50 was 11.6 µM.
